# Like-named read-outs stand apart in the source and are kept apart here.
# How the values were obtained:
# SR = assay: NCI five-dose assay; assay type: cell-based, human; settings: five dose levels
# A549/ATCC = assay: NCI five-dose assay; assay type: cell-based, human; settings: five dose levels
# HOP-92 = assay: NCI five-dose assay; assay type: cell-based, human; settings: HOP-92, five dose levels
# NCI-H322M = assay: NCI five-dose assay; assay type: cell-based, human; settings: five dose levels
# NCI-H522 = assay: NCI five-dose assay; assay type: cell-based, human; settings: NCI-H522, five dose levels
# KM12 = assay: NCI five-dose assay; assay type: cell-based, human; settings: KM12, five dose levels
# SF-295 = assay: NCI five-dose assay; assay type: cell-based, human; settings: SF-295, five dose levels
# SNB-75 = assay: NCI five-dose assay; assay type: cell-based, human; settings: SNB-75, five dose levels
# SK-MEL-2 = assay: NCI five-dose assay; assay type: cell-based, human; settings: Homo sapiens, SK-MEL-2, five dose levels
# SK-MEL-28 = assay: NCI five-dose assay; assay type: cell-based, human; settings: SK-MEL-28, five dose levels
# SK-MEL-5 = assay: NCI five-dose assay; assay type: cell-based, human; settings: SK-MEL-5, five dose levels
# UACC-62 = assay: NCI five-dose assay; assay type: cell-based, human; settings: UACC-62, five dose levels
# IGROV1 = assay: NCI five-dose assay; assay type: cell-based, human; settings: IGROV1, five dose levels
# OVCAR-5 = assay: NCI five-dose assay; assay type: cell-based, human; settings: OVCAR-5, five dose levels
# A498 = assay: NCI five-dose assay; assay type: cell-based, human; settings: A498, five dose levels
# RXF393 = assay: NCI five-dose assay; assay type: cell-based, human; settings: RXF393, five dose levels
# TK-10 = assay: NCI five-dose assay; assay type: cell-based, human; settings: TK-10, five dose levels
# UO-31 = assay: NCI five-dose assay; assay type: cell-based, human; settings: UO-31, five dose levels
# MCF7 = assay: NCI five-dose assay; assay type: cell-based, human; settings: MCF7, five dose levels
# Melanoma subpanel = assay: NCI five-dose assay, subpanel mean; assay type: cell-based, human
# Ovarian cancer subpanel = assay: NCI five-dose assay, subpanel mean; assay type: cell-based, human
# Renal cancer subpanel = assay: NCI five-dose assay, subpanel mean; assay type: cell-based, human
# tubulin = biological target: T1, tubulin (Sus scrofa, UniProt P02550+P02554); assay: Tubulin polymerization inhibitory assay; assay type: biochemical
# T1 construct: purchased Cytoskeleton Inc., Denver, CO, USA
# T1 sequence (P02554 whole entry): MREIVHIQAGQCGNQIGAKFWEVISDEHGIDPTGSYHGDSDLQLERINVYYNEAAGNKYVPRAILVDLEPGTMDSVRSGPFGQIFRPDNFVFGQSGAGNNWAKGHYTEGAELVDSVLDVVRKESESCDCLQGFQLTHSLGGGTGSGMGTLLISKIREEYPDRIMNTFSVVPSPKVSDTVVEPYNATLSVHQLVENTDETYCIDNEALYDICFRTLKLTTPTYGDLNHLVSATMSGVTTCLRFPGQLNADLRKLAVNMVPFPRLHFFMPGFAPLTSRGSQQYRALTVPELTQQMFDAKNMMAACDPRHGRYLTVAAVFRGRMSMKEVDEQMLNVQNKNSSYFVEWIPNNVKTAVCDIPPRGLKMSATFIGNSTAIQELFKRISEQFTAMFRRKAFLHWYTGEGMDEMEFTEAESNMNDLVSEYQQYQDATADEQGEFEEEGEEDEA
# T1 sequence (P02550 whole entry): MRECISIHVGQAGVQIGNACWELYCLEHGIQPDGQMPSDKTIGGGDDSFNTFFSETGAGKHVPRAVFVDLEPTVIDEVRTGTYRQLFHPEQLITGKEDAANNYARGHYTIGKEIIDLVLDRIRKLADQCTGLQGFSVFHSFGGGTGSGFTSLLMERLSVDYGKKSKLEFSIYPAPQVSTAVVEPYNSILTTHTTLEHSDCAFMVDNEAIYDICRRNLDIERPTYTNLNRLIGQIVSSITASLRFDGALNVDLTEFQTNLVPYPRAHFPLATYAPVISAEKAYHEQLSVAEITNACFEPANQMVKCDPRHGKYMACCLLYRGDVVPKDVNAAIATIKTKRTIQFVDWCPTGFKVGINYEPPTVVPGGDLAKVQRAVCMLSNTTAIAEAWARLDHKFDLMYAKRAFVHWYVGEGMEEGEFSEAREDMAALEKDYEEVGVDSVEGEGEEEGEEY
# Text: The substances’ effects on tubulin polymerization were examined using the Tubulin Polymerization Assay Kit (Cytoskeleton Inc., Denver, CO, USA) according to the supplier’s instructions, with details described in Appendix A..
# The activity of compounds on tubulin polymerization was investigated using the Tubulin Polymerization Assay Kit (Cytoskeleton Inc., Denver, CO, USA), which works via fluorescent reporter enhancement. […] Docetaxel and vincristine (Apoteket AB, Stockholm, Sweden) served as positive stabilizing and destabilizing controls. Both were used at a 3 µM concentration in PBS.
# [1] = Homo sapiens, read-out: GI50 Conc. per Cell Lines
# [2] = Homo sapiens, read-out: LC50 (the source's name)
structure (smiles),measurement,setting,value
"O/N=C(\CSc1nnc(-c2c[nH]c3ccccc23)n1-c1ccccc1)c1ccc(Cl)cc1 [Compound 7j, (Z)-2-((5-(1H-Indol-3-yl)-4-phenyl-4H-1,2,4-triazol-3-yl)thio)-1-(4-chlorophenyl) Ethanone Oxime]",GI50,SR; [1],4.74 µM
same,CC50,SR; [2],> 100 µM
same,TGI Conc. per Cell Lines,SR,>100 µM
same,GI50,A549/ATCC; [1],3.35 µM
same,CC50,A549/ATCC; [2],> 100 µM
same,TGI Conc. per Cell Lines,A549/ATCC,16.8 µM
same,TGI Conc. per Cell Lines,HOP-92,37.6 µM
same,GI50,HOP-92; [1],3.84 µM
same,CC50,HOP-92; [2],> 100 µM
same,GI50,NCI-H322M; [1],5.71 µM
same,CC50,NCI-H322M; [2],> 100 µM
same,TGI Conc. per Cell Lines,NCI-H322M,7.33 µM
same,GI50,NCI-H522; [1],3.11 µM
same,CC50,NCI-H522; [2],81.7 µM
same,TGI Conc. per Cell Lines,NCI-H522,12.5 µM
same,GI50,KM12; [1],4.72 µM
same,CC50,KM12; [2],> 100 µM
same,TGI Conc. per Cell Lines,KM12,>100 µM
same,GI50,SF-295; [1],3.11 µM
same,CC50,SF-295; [2],> 100 µM
same,TGI Conc. per Cell Lines,SF-295,13.4 µM
same,GI50,SNB-75; [1],1.68 µM
same,CC50,SNB-75; [2],> 100 µM
same,TGI Conc. per Cell Lines,SNB-75,5.80 µM
same,GI50,SK-MEL-2; read-out: GI50 Conc. per Cell Lines,3.64 µM
same,CC50,SK-MEL-2; read-out: LC50 (the source's name),> 100 µM
same,GI50,SK-MEL-28; [1],4.41 µM
same,CC50,SK-MEL-28; [2],57.7 µM
same,TGI Conc. per Cell Lines,SK-MEL-28,>100 µM
same,GI50,SK-MEL-5; [1],3.87 µM
same,CC50,SK-MEL-5; [2],38.7 µM
same,TGI Conc. per Cell Lines,SK-MEL-5,19.5 µM
same,GI50,UACC-62; [1],2.62 µM
same,CC50,UACC-62; [2],> 100 µM
same,TGI Conc. per Cell Lines,UACC-62,10.1 µM
same,GI50,"IGROV1; Homo sapiens, IGROV-1, read-out: GI50 Conc. per Cell Lines",5.35 µM
same,CC50,"IGROV1; Homo sapiens, IGROV-1, read-out: LC50 (the source's name)",> 100 µM
same,TGI Conc. per Cell Lines,IGROV1,19.8 µM
same,LC50,OVCAR-5; Homo sapiens,> 100 µM
same,GI50,OVCAR-5; [1],3.37 µM
same,TGI Conc. per Cell Lines,OVCAR-5,11.4 µM
same,TGI Conc. per Cell Lines,A498,65.8 µM
same,LC50,A498; Homo sapiens,88.6 µM
same,GI50,A498; [1],15.4 µM
same,LC50 (concentration killing 50% of cells),"RXF393; Homo sapiens, RXF 393",46.3 µM
same,GI50,"RXF393; Homo sapiens, RXF 393, read-out: GI50 Conc. per Cell Lines",2.22 µM
same,TGI Conc. per Cell Lines,RXF393,6.29 µM
same,GI50,TK-10; [1],3.7 µM
same,CC50,TK-10; [2],> 100 µM
same,TGI Conc. per Cell Lines,TK-10,17.7 µM
same,GI50,UO-31; [1],2.88 µM
same,CC50,UO-31; [2],71.1 µM
same,TGI Conc. per Cell Lines,UO-31,15.7 µM
same,LC50,MCF7; Homo sapiens,22.5 µM
same,GI50,MCF7; [1],3.63 µM
same,TGI Conc. per Cell Lines,MCF7,21.6 µM
same,GI50,"Melanoma subpanel; Homo sapiens, Melanoma, average sensitivity of all cell lines of the subpanel, read-out: GI50 Subpanel MID b",3.42 µM
same,GI50 Selectivity Ratio (MID a/MID b),Melanoma subpanel; Melanoma subpanel,1.06
same,GI50,"Ovarian cancer subpanel; Homo sapiens, Ovarian cancer, average sensitivity of all cell lines of the subpanel, read-out: GI50 Subpanel MID b",3.61 µM
same,GI50 Selectivity Ratio (MID a/MID b),Ovarian cancer subpanel; Ovarian cancer subpanel,1.01
same,GI50,"Renal cancer subpanel; Homo sapiens, Renal cancer, average sensitivity of all cell lines of the subpanel, read-out: GI50 Subpanel MID b",5.23 µM
same,GI50 Selectivity Ratio (MID a/MID b),Renal cancer subpanel; Renal cancer subpanel,0.69
same,%inhibition,tubulin; conc 0.01 (unit not given; IC50 from this curve in µg/ml),5.23%
same,%inhibition,tubulin; conc 0.1 (unit not given; IC50 from this curve in µg/ml),15.6%
same,%inhibition,tubulin; conc 1 (unit not given; IC50 from this curve in µg/ml),34.8%
same,%inhibition,tubulin; conc 10 (unit not given; IC50 from this curve in µg/ml),58.9%
same,%inhibition,tubulin; conc 100 (unit not given; IC50 from this curve in µg/ml),87.6%
same,IC50,tubulin; read-out: Tub. IC50±SD (converted),6.26 µM
same,IC50,"tubulin; read-out: Tubulin Inhibitory Effect, IC50",6.26 ± 0.15 µM
